PMC10418939, “Synthesis, ^123I-Radiolabeling Optimization, and Initial Preclinical Evaluation of Novel Urea-Based PSMA Inhibitors with a Tributylstannyl Prosthetic Group in Their Structures” (International Journal of Molecular Sciences, 2023)
Like-named read-outs stand apart in the source and are kept apart here.

Key:
[1] = NCr nude mice bearing LNCaP xenografts, cited from earlier work; for accumulation in the liver: 4 h after injection; for accumulation in the kidney: after 4 h
Excerpt: The uptake of [^123I]PSMA-p-IB in normal organs, except in the salivary gland, gastrointestinal tract, and body, were low. […] This value was correlated with PSMA-p-IB that had been ^123I-labeled, which is non-residualizi ...

[2] = In vivo biodistribution in normal mice; set-up: activity in the whole gastrointestinal tract (with contents): unit not given here; conditions: female CD1 mice, i.v. tail vein, 80 pmol, 4 h p.i.
Experimental: The mice were sacrificed at 4 h post-injection (p.i.) by cervical dislocation. A side-by-side comparison of the biodistribution of [^123I]PSMA-p-IB and [^177Lu]Lu-PSMA-617 in normal mice is shown in Figure 11. Biodistribution of [^123I]PSMA-p-IB at 4 h p.i. in CD1 mice reflects a low level of accumulation in almost all normal organs, except in the salivary gland, gastrointestinal tract, and the rest of the body. There were significant differences between the uptake of [^123I]PSMA-p-IB and [^177Lu]Lu-PSMA-617 in several normal organs. Low accumulation of both ligands was detected in muscle and bone. However, it was determined that the uptake of [^177Lu]Lu-PSMA-617 in muscle (0.1 ± 0.1 %ID/g) was noticeably lower than that of [^123I]PSMA-p-IB (0.2 ± 0.0 %ID/g). […] The activity of [^123I]PSMA-p-IB in blood was 1.3 ± 0.5 %ID/g. […] The activity in the blood for [^123I]PSMA-p-IB experiment was associated with […] labeled with ^123I, which is non-residualizing and is thought to result in the rapid excretion of radiometabolites. Additionally, this ligand lipophilicity might lead it to bind to proteins in the blood. […] This value was clearly higher than the [^177Lu]Lu-PSMA-617 accumulation in the same organ of 0.1 ± 0.0 %ID/g. This [^123I]PSMA-p-IB accumulation could be due to radioiodine catabolites. The activity in the whole gastrointestinal tract (with contents) and small intestine for [^123I]PSMA-p-IB was 12.4 ± 0.8 and 1.1 ± 0.2 %ID/g, respectively. Meanwhile, the activity of [^177Lu]Lu-PSMA-617 in the whole gastrointestinal tract (with contents) and small intestine was 1.2 ± 0.8 and 0.2 ± 0.1 %ID/g, respectively.
Remarkable results were observed whereby the accumulation of [^123I]PSMA-p-IB (0.9 ± 0.1 %ID/g) in the liver was substantially lower than that of [^177Lu]Lu-PSMA-617 (2.3 ± 0.2 %ID/g).
The biodistribution of [^123I]PSMA-p-IB and [^177Lu]Lu-PSMA-617 in normal mice was evaluated in 8 female CD1 mice (2 groups) of 6 weeks of age with an average weight of 31.8 ± 3.6 g. The mice were housed and cared for under standard conditions prior to use. Four mice were each injected intravenously through the tail vein with 40 kBq (80 pmol) of [^123I]PSMA-p-IB in 100 μL PBS with 10% ethanol. The remaining 4 mice were intravenously (i.v.) injected with 130 kBq (80 pmol) of [^177Lu]Lu-PSMA-617 in 100 μL PBS with 1% BSA per mouse. The mice were sacrificed 4 h after injection. Cervical dislocation was employed to sacrifice the anesthetized mice. The blood, tissues, and organs (salivary gland, lung, liver, spleen, small intestine, kidney, muscle, and bone) were excised, collected, and weighed. The ^123I and ^177Lu activities were simultaneously measured using a gamma-counter. The activity uptake was expressed as the percentage of injected activity per gram of organ (%ID/g).
Figure 11 Biodistribution of [^123I]PSMA-p-IB and […] in CD1 mice 4 h post-injection (p.i.). Data for the gastrointestinal tract (including the contents) and the body are presented as the %ID per whole sample. ns indicates p > 0.05, * indicates p ≤ 0.05, ** indicates p ≤ 0.01, *** indicates p ≤ 0.001 and **** indicates p ≤ 0.0001. The comparison study was performed by unpaired 2-tailed t-tests (95% confidence interval).

Compound	accumulation in the liver [1]	accumulation in the kidney [1]	accumulation in bone ([2]; n = 4, gamma counter)	accumulation in salivary glands ([2]; n = 4, gamma counter)	accumulation in the liver ([2]; n = 4, gamma counter)	activity in blood ([2]; n = 4, gamma counter)	activity in small intestine ([2]; n = 4, gamma counter)	uptake in muscle ([2]; n = 4, gamma counter)	uptake in the kidney ([2]; n = 4, gamma counter)	activity in the whole gastrointestinal tract (with contents) ([2]; n = 4, Figure 11 legend: %ID per whole sample)
O=C(O)CC[C@H](NC(=O)N[C@@H](CCCCNCc1ccc([123I])cc1)C(=O)O)C(=O)O [[^123I]MIP-1072]	2.17 ± 0.67 %ID/g	35.7 ± 18.7 %ID/g								
O=C(O)CC[C@H](NC(=O)N[C@@H](CCCCNC(=O)Nc1ccc([123I])cc1)C(=O)O)C(=O)O [[^123I]MIP-1095]	7.82 ± 1.01 %ID/g	77.5 ± 16.5 %ID/g								
[^177Lu]Lu-PSMA-617			0.6 ± 0.1 %ID/g	0.1 ± 0.0 %ID/g	2.3 ± 0.2 %ID/g	0.1 ± 0.0 %ID/g	0.2 ± 0.1 %ID/g	0.1 ± 0.1 %ID/g	6.1 ± 3.7 %ID/g	1.2 ± 0.8
